Measured values as given in patent US20080089860A1, “Therapeutic compositions and methods useful in treating cancer” (priority 2006, published 2008).
Several values for one entry are separate records, joined by “and”; a condition that tells them apart may be missing. Equal entries are not always repeated.

Columns and labels:
HL-60 cells = experiment: HL-60 differentiation (NBT reduction); assay type: cell-based, human; details: day 6
Description: (§1) Differentiation of AML cell lines was assessed by their ability to produce superoxide as measured by reduction of NBT to formazan and by analysis of expression of CD11b surface marker by flow cytometry. For NBT reduction, each cell suspension was mixed with an equal volume of solution containing 1 mg/ml of NBT (Sigma) and 2.5 µg/ml of TPA for 30 minutes at 37° C. After incubation, cells containing the purple formazan deposits and cells devoid of NBT-reducing activity (white cells) in each sample were determined by counting 200 cells under microscope. Data is expressed as a percentage based on the following ratio: purple cells/purple+white cells. For analysis of cell surface antigens, cells were exposed to phycoerythrin (PE)-conjugated murine anti-human CD11b (DAKO Corp., Carpinteria, Calif.). Analysis of fluorescence was performed on a FACScan flow cytometer (Beckton Dickinson, Mountain View, Calif.).

U937 cells = experiment: U937 differentiation (NBT reduction); assay type: cell-based, human; details: day 6
Description: as §1

NB4 cells [1] = experiment: NB4 cell cycle analysis and Annexin V/propidium iodide assay; assay type: cell-based, human; details: 3 days; sodium stibogluconate 250 μg/ml, ATRA 1 μM
Description: […] Briefly, the cells were fixed in cold ethanol and incubated for 30 minutes at 4° C. in the dark with a solution of […], 1 mg/ml RNase and 0.1% NP-40. Analysis was performed immediately after staining using the CELLFIT program (Becton Dickinson, Mountain View, Calif.).
] Annexin V staining of exposed membrane phospholipid phosphatidylserine (PS) was done using the Annexin V assay kit (Pharmingen, San Diego, Calif.). Briefly, NB4 cells were cultured in the 10% FCS RPMI 1640 medium in the absence or presence of sodium stibogluconate (250 µg/ml) or ATRA (1 µM) for 3 days. Cells were then washed in PBS twice and stained in binding buffer (10 mM Hepes, pH 7.4; 140 mM NaCl; 2.5 mM CaCl2) containing Annexin V-FITC and propidium iodide for 15 min. The reaction was stopped by adding 10 volumes of binding buffer and analyzed by FACS (Becton Dickinson Facsvantage).

[2] = test system: acute promyelocytic leukemia; details: in vivo; cited from earlier work
SHP-1 = target: T1, SHP-1 (Mus musculus, UniProt P29351); experiment: In vitro PTPase assay, GST/SHP-1; assay type: biochemical; details: 1-1,000 μg/ml
T1 construct: made in house
T1 sequence (P29351 whole entry): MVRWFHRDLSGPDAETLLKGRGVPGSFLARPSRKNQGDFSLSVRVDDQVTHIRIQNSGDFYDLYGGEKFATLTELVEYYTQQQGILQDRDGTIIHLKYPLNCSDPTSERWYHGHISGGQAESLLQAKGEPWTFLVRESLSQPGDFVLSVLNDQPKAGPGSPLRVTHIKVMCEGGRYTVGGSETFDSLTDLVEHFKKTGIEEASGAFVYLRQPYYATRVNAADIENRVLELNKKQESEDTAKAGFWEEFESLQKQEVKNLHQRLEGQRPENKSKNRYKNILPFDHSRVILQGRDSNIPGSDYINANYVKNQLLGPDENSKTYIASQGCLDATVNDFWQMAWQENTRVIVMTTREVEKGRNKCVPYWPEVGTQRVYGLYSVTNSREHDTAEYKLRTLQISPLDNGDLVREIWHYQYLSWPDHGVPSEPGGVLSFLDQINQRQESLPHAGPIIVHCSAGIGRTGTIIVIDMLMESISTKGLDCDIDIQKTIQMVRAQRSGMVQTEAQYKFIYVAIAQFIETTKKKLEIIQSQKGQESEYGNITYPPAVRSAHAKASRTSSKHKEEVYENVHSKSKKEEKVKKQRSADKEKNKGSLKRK
Description: In vitro PTPase activities were measured using the commercial protein tyrosine phosphatase assay kit (Upstate Biotechnology, Inc. (“UBI”)) following established procedure known to one of skill in the art. […] Briefly, 0.01 µg of GST/PTPase fusion proteins was incubated in 50 µl of Tris buffer (10 mM Tris, pH 7.4) containing different concentrations of inhibitors or chemicals (0-1,000 µg/ml) at 22° […] 100 µl of Malachite Green solution was added and incubated for 5 minutes, and the absorbance at 660 nm was measured after 5 minutes.
To assess the reversibility of inhibition of SHP-1 by PTPase inhibitors, GST/SHP-1 fusion protein bound on glutathione beads were pre-incubated in cold Tris buffer or Tris buffer containing the PTPase inhibitors at 4° C. for 30 minutes. The beads were then either subjected to in vitro PTPase assays or washed 3 times in Tris buffer then subjected to in vitro PTPase assays.
Briefly, individual PTPases (0.1 µg/reaction) in 50 µL of PTPase buffer (50 mM Tris, pH 7.4) were incubated at 22° C. for 10 minutes or as indicated in the absence or presence of inhibitory compounds. Substrates (0.2 mM phosphotyrosine peptide) were then added and allowed to react at 22° C. for 18 hrs. PTPase activity of individual reactions was measured by adding 100 µL of malachite green solution (UBI) and then quantifying the amounts of free phosphate cleaved by the PTPase from the peptide substrate by spectrometry (OD660 nm). […] Relative PTPase activities were calculated based on the formula: (PTPase activity in the presence of an inhibitory compound/PTPase activity in the absence of the compound)× 100%. To assess the reversibility of PTPase inhibition, GST fusion proteins of the PTPases bound on glutathione beads (Pharmacia) were pre-incubated with cold Tris buffer (50 mM Tris, pH 7.0) or Tris buffer containing the inhibitor at 4° C. for 30 minutes. The beads were then washed three times in cold Tris buffer or not washed prior to subjecting to in vitro PTPase assays.

PTP1B = target: T2, PTP1B (Homo sapiens, UniProt P18031); experiment: In vitro PTPase assay, GST/PTP1B; assay type: biochemical; details: 1-1,000 μg/ml
T2 construct: purchased Upstate Biotechnology Inc. (Lake Placid, N.Y.)
T2 sequence (P18031 whole entry, species assumed): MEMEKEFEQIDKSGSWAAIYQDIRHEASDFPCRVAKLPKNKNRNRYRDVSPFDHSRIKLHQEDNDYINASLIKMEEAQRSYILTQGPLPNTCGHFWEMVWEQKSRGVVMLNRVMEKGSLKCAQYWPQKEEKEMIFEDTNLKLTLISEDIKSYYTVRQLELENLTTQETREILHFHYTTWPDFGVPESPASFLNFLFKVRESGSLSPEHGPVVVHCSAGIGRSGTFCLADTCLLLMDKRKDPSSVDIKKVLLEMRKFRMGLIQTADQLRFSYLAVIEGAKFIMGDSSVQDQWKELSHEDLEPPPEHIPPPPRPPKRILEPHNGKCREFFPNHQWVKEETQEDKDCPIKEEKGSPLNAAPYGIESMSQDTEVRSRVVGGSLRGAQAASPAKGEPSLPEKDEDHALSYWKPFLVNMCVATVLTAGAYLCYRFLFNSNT
Description: In vitro PTPase activities were measured using the commercial protein tyrosine phosphatase assay kit (Upstate Biotechnology, Inc. (“UBI”)) following established procedure known to one of skill in the art. This assay measures the in vitro dephosphorylation of a synthetic phosphotyrosine peptide of the sequence Arg-Arg-Leu-Ile-Glu-Asp-Ala-Gle-T- -yr-Ala-Ala-Arg-Gly, wherein the tyrosine is phosphorylated (SEQ ID NO: 3). Briefly, 0.01 µg of GST/PTPase fusion proteins was incubated in 50 µl of Tris buffer (10 mM Tris, pH 7.4) containing different concentrations of inhibitors or chemicals (0-1,000 µg/ml) at 22° C. for 10 minutes, followed by addition of 0.2 mM of the phosphotyrosine peptide and incubation at 22° C. for 18 hours. 100 µl of Malachite Green solution was added and incubated for 5 minutes, and the absorbance at 660 nm was measured after 5 minutes.
In vitro PTPase assays were used to determine the effects of levamisole (Sigma), pentamidine (American Pharmaceutical Partners, Inc.), and ketoconazole (Sigma) on recombinant PTPases, following established procedures (Pathak et al., J. Imumol. 167, 3391 (2001); Pathak et al., Leukemia 16, 2285 (2002), Yi et al., J. Immunol. 169, 5978 (2002)) using a synthetic phosphotyrosine peptide or DiFMUP as the substrate as detailed above in section I.A.2.

[3] = test system: Jak2/Stat5 and cellular protein tyrosine phosphorylation in Baf3 cells; experiment: Cellular protein phosphorylation and Western blotting in Baf3 cells; assay type: cell-based, murine; details: Baf3 cells
Description: For induction of cellular protein phosphorylation by sodium stibogluconate or pervanadate, Baf3 cells were incubated in 0.1% FCS-RPMI 1640 medium at 37° C. for 16 hours. The cells were then washed twice in RPMI 1640 medium and incubated with sodium stibogluconate or pervanandate (0.1 mM) for various times prior to termination by lysing cells in cold lysis buffer (50 mM Tris, pH 7.4; 150 mM NaCl; 0.2 mM Na3VO4; 20 mm NaF; 1% Nonidet P-40; 2 mM PMSF; 20 µg/ml of Aprotinin and 1 mM of sodium molybdic acid). To determine the effect of sodium stibogluconate or potassium antimonyl tartrate on IL-3-induced Jak/Stat phosphorylation, Baf3 cells were deprived of the growth factor for 16 hours in 0.1% FCS RPMI 1640 medium and then incubated with or without sodium stibogluconate or potassium antimonyl tartrate for 10 minutes. IL-3 was next added to the cell suspension and incubated for various times. The Cells were then harvested and lysed in cold lysis buffer at 4° C. for 45 minutes. Total cell lysates (TCL) were separated in SDS-PAGE gels, blotted onto nitrocellulose membrane (Schleicher & Schuell), probed with specific antibodies and detected using an enhanced chemiluminescence kit (ECL, Amersham, Arlington Heights, Ill.).

Baf3 cells = experiment: Baf3 cell proliferation assay; assay type: cell-based, murine
Description: The murine hematopoietic cell line Baf3 was maintained in RPMI 1640 medium supplemented with 10% fetal calf serum (FCS) and murine IL-3 (20 units/ml) as described previously in Damen et al., J. Biol. Chem. 270, 23402 (1995). Human myeloid cell line TF-1 was maintained in RPMI 1640 supplemented with 10% FCS and 40 ng/ml of recombinant human GM-CSF as described previously in Thomassen et al., Clin. Immunol. 95, 85 (2000). For cell proliferation assays, cells were washed in 10% FCS medium twice, resuspended in 10% FCS medium, incubated at 37° C. for 16 hours, and then cultured at 37° C. in 10% FCS medium containing various amounts of cytokines, sodium stibogluconate, or potassium antimonyl tartrate for 3-6 days as indicated. The cell numbers in proliferation assays were determined by an MTT assay or by microscopic cell counting as indicated.

NB4 cells [4] = experiment: NB4 differentiation (NBT reduction, CD11b); assay type: cell-based, human; details: GM-CSF alone
Description: as §1

[5] = sodium stibogluconate 400 μg/ml, GM-CSF 25 ng/ml

Molecule: CC1=C(/C=C/C(C)=C/C=C/C(C)=C/C(=O)O)C(C)(C)CCC1 [ATRA, All-trans-retinoic acid]
- HL-60 differentiation (NBT-positive cells) (HL-60 cells; [5]): 90%
- U937 differentiation (NBT-positive cells) (U937 cells; [5]): 72% and 73%
- cell cycle distribution of NB4 cells (NB4 cells [1]): arrested at G1 phase
- long term APL-free survival [2]: exceeding 75%

Molecule: O.O.O.O=C([O-])[C@H]([O-])[C@@H]([O-])C(=O)[O-].O=C([O-])[C@H]([O-])[C@@H]([O-])C(=O)[O-].[K+].[K+].[Sb+3].[Sb+3] [potassium antimonyl tartrate]
- inhibition of SHP-1 (SHP-1): no detectable inhibition
- inhibition of PTP1B (PTP1B): no detectable inhibition
- IL-3-induced Stat5 phosphorylation [3]: failed to enhance
- toxicity against Baf3 cells (Baf3 cells): marked toxicity
- IL-3-induced proliferation of Baf3 cells (Baf3 cells; IL-3 10 units/ml, three days): failed to enhance

Molecule: GM-CSF: recombinant human GM-CSF
- effect on NB-4 cell differentiation (NB4 cells [4]): no detectable effect
- maximal increase of NBT-positive cells (HL-60 cells; GM-CSF alone): 8-10%
- maximal increase of NBT-positive cells (U937 cells; GM-CSF alone): 8-10%
